Experimental data: publication PMC5285354, “Cationic Net Charge and Counter Ion Type as Antimicrobial Activity Determinant Factors of Short Lipopeptides” (Frontiers in Microbiology, 2017)
Converted amounts (≈) assume the structure as drawn. Where two headings read alike, the source gives them in different places. Where a SMILES comes first, the peptide text is derived from it. The star is where a group is joined. Lauroyl = CCCCCCCCCCCC(=O)*; Decanoyl = CCCCCCCCCC(=O)*

Key:
Assay type in all cases: cell-based
[1] = tested on: Aspergillus brasiliensis (ATCC 16404); conditions: ATCC 16404, 48 h
Experimental: (§1) The minimum inhibitory concentration (MIC), minimum bactericidal concentration (MBC) and minimum fungicidal concentration (MFC) were determined according to the procedure recommended by the Clinical Laboratory Standards Institute (CLSI). The following reference strains were tested: Gram-negative E. coli (ATCC 25922), K. pneumoniae (ATCC 700603), P. vulgaris (PCM 2668), P. aeruginosa (ATCC 9027), Gram-positive S. aureus (ATCC 25923), S. epidermidis (PCM 2118), B. subtilis (ATCC 6633), E. faecalis (ATCC 29212) and fungi C. albicans (ATCC 10231), C. tropicalis (PCM 2681), and A. brasiliensis (ATCC 16404). All the microorganisms were from the Polish Collection of Microorganisms (Wroclaw, Poland). MIC was determined using a microbroth dilution method with Mueller-Hinton (MH) broth for bacteria and Sabouraud Dextrose broth for fungi (Becton Dickinson, Le Pont de Claix, France). An initial inoculum of 10^5 cfu/mL was used for bacteria and 10^3 cfu/mL for fungi. Polypropylene 96-well plates (Kartell, Noviglio, Italy) were incubated for 18 h at 37°C for bacteria and for 48 h at 25°C for the tested fungi. MIC (μg/mL) was taken as the lowest concentration of the lipopeptide, at which the observable growth was inhibited. […] The experiments were performed in triplicate on three different days.

[2] = tested on: Bacillus subtilis (ATCC 6633); conditions: for MIC Bacillus subtillis: ATCC 6633, 18 h; for MBC Bacillus subtillis: ATCC 6633, 24 h
Experimental: as §1

[3] = tested on: Candida albicans (ATCC 10231); conditions: ATCC 10231, 48 h
Experimental: as §1

[4] = tested on: Candida tropicalis (PCM 2681); conditions: PCM 2681, 48 h
Experimental: as §1

[5] = tested on: Enterococcus faecalis (ATCC 29212)
Experimental: as §1

[6] = tested on: Escherichia coli (ATCC 25922)
Experimental: as §1

[7] = tested on: Klebsiella pneumoniae (ATCC 700603)
Experimental: as §1

[8] = tested on: Proteus vulgaris (PCM 2668); conditions: PCM 2668, TFA salt, triplicate; for MIC Proteus vulgaris: Mueller-Hinton broth, 10^5 cfu/mL, 18 h 37°C; for MBC Proteus vulgaris: subculture on Mueller-Hinton II Agar, 24 h 37°C
Experimental: as §1

[9] = tested on: Pseudomonas aeruginosa (ATCC 9027); conditions: ATCC 9027, 18 h
Experimental: as §1

[10] = tested on: Staphylococcus aureus (ATCC 25923)
Experimental: as §1

[11] = tested on: Staphylococcus epidermidis (PCM 2118); conditions: for MIC Staphylococcus epidermidis: PCM 2118, 18 h; for MBC Staphylococcus epidermidis: PCM 2118, 24 h
Experimental: as §1

[12] = tested on: Pseudomonas aeruginosa (ATCC 9027); conditions: ATCC 9027, 24 h
human red blood cells = conditions: 1 h
Experimental: The hemolytic activity of the lipopeptides was determined by exposing human red blood cells (4% v/v) to tested compounds at graded concentrations. Red blood cells were obtained from a healthy donor. EDTA was used to prevent the blood clotting. The plasma was removed via centrifugation and the erythrocytes were washed three times with PBS. The red blood cells were suspended in PBS and incubated with different concentrations of lipopeptides at 37°C for 1 h and centrifuged for 5 min at 1000 × g. The supernatants were transferred to a sterile 96-well plate and hemoglobin release was measured with an Epoch microplate spectrophotometer (BioTek, USA) by recording the absorbance at 550 nm. A 0.1% Triton X-100 solution was used as the positive control (100% of hemolysis) and pure PBS as the negative (0% of hemolysis). Minimum hemolytic concentration (MHC) was taken as the lowest concentration which induced 10% of hemolysis.

[13] = ATCC 29212, TFA salt, Mueller-Hinton broth, 10^5 cfu/mL, 18 h 37°C, triplicate
[14] = ATCC 29212, TFA salt, subculture on Mueller-Hinton II Agar, 24 h 37°C, triplicate
[15] = ATCC 25922, TFA salt, Mueller-Hinton broth, 10^5 cfu/mL, 18 h 37°C, triplicate
[16] = ATCC 25922, TFA salt, subculture on Mueller-Hinton II Agar, 24 h 37°C, triplicate
[17] = ATCC 25923, TFA salt, MIC wells subcultured on Mueller-Hinton II Agar, 24 h 37°C, triplicate
[18] = ATCC 25923, TFA salt, Mueller-Hinton broth, 10^5 cfu/mL, 18 h 37°C, triplicate on three days

| SMILES | MIC Aspergillus brasiliensis [1] | MIC Bacillus subtillis [2] | MIC Candida albicans [3] | MIC Candida tropicalis [4] | MIC Escherichia coli [6, 15] | MIC Proteus vulgaris [8] | MIC Pseudomonas aeruginosa [9] | MIC Staphylococcus aureus [10, 18] | MIC Staphylococcus epidermidis [11] | MFC Aspergillus brasiliensis [1] | MBC Bacillus subtillis [2] | MFC Candida albicans [3] | MFC Candida tropicalis [4] | MBC Enterococcus fecalis [5, 14] | MBC Escherichia coli [6, 16] | MBC Proteus vulgaris [8] | MBC Staphylococcus aureus [10, 17] | MBC Staphylococcus epidermidis [11] | MBC Pseudomonas aeruginosa [12] | MBC Klebsiella pneumoniae ([7]; ATCC 700603, 24 h) | also measured |
| --- | --- | --- | --- | --- | --- | --- | --- | --- | --- | --- | --- | --- | --- | --- | --- | --- | --- | --- | --- | --- | --- |
| CCCCCCCCCC(=O)N[C@@H](CCCCN)C(=O)NCC(=O)N[C@@H](CCCCN)C(N)=O [C10-KGK-NH2] (Decanoyl-Lys-Gly-Lys-NH2) | 1000 mg/L (≈ 2060 µM) | 512 mg/L (≈ 1060 µM) | 1000 mg/L (≈ 2060 µM) | 512 mg/L (≈ 1060 µM) | >2000 mg/L | >2000 mg/L | 2000 mg/L (≈ 4130 µM) | >2000 mg/L | 512 mg/L (≈ 1060 µM) | 1000 mg/L (≈ 2060 µM) | 1000 mg/L (≈ 2060 µM) | 1000 mg/L (≈ 2060 µM) | 1000 mg/L (≈ 2060 µM) | >2000 mg/L | >2000 mg/L | >2000 mg/L | >2000 mg/L | 512 mg/L (≈ 1060 µM) | 2000 mg/L (≈ 4130 µM) | – | MIC Enterococcus fecalis [5, 13]: >2000 mg/L; MIC Klebsiella pneumoniae ([7]; ATCC 700603, TFA salt, Mueller-Hinton broth, 10^5 cfu/mL, 18 h 37°C, triplicate): >2000 mg/L; MBC Klebsiella pneumoniae ([7]; ATCC 700603, TFA salt, subculture on Mueller-Hinton II Agar, 24 h 37°C, triplicate): >2000 mg/L |
| CCCCCCCCCC(=O)N[C@@H](CCCCN)C(N)=O [C10-K-NH2] | 512 mg/L (≈ 1710 µM) | 1000 mg/L (≈ 3340 µM) | 1000 mg/L (≈ 3340 µM) | 1000 mg/L (≈ 3340 µM) | – | >2000 mg/L | 512 mg/L (≈ 1710 µM) | – | 1000 mg/L (≈ 3340 µM) | 1000 mg/L (≈ 3340 µM) | 1000 mg/L (≈ 3340 µM) | 2000 mg/L (≈ 6680 µM) | 2000 mg/L (≈ 6680 µM) | >2000 mg/L | – | >2000 mg/L | >1000 mg/L | 1000 mg/L (≈ 3340 µM) | 1000 mg/L (≈ 3340 µM) | 1000 mg/L (≈ 3340 µM) | MIC Enterococcus fecalis [5, 13]: >2000 mg/L; MIC Escherichia coli ([6]; ATCC 25922, 18 h): 1000 mg/L (≈ 3340 µM); MBC Escherichia coli ([6]; ATCC 25922, 24 h): 1000 mg/L (≈ 3340 µM); MIC Klebsiella pneumoniae ([7]; ATCC 700603, 18 h): 1000 mg/L (≈ 3340 µM); MIC Staphylococcus aureus ([10]; ATCC 25923, 18 h): 1000 mg/L (≈ 3340 µM) |
| CCCCCCCCCC(=O)N[C@@H](CCCCN)C(=O)NCC(N)=O [C10-KG-NH2] (Decanoyl-Lys-Gly-NH2) | 1000 mg/L (≈ 2800 µM) | 512 mg/L (≈ 1440 µM) | 1000 mg/L (≈ 2800 µM) | 1000 mg/L (≈ 2800 µM) | >2000 mg/L | >2000 mg/L | 1000 mg/L (≈ 2800 µM) | >2000 mg/L | 512 mg/L (≈ 1440 µM) | 2000 mg/L (≈ 5610 µM) | 512 mg/L (≈ 1440 µM) | 2000 mg/L (≈ 5610 µM) | 2000 mg/L (≈ 5610 µM) | >1000 mg/L | >2000 mg/L | >2000 mg/L | >2000 mg/L | 1000 mg/L (≈ 2800 µM) | 2000 mg/L (≈ 5610 µM) | 2000 mg/L (≈ 5610 µM) | MIC Enterococcus fecalis ([5]; ATCC 29212, 18 h): 1000 mg/L (≈ 2800 µM); MIC Klebsiella pneumoniae ([7]; ATCC 700603, 18 h): 1000 mg/L (≈ 2800 µM) |

More lines, main results first:

| MIC Aspergillus brasiliensis [1] | MIC Bacillus subtillis [2] | MIC Candida albicans [3] | MIC Candida tropicalis [4] | MIC Escherichia coli [6, 15] | MIC Proteus vulgaris [8] | MIC Pseudomonas aeruginosa [9] | MIC Staphylococcus aureus [10, 18] | MIC Staphylococcus epidermidis [11] | SMILES | MFC Aspergillus brasiliensis [1] | MBC Bacillus subtillis [2] | MFC Candida albicans [3] | MFC Candida tropicalis [4] | MBC Enterococcus fecalis [5, 14] | MBC Escherichia coli [6, 16] | MBC Proteus vulgaris [8] | MBC Staphylococcus aureus [10, 17] | MBC Staphylococcus epidermidis [11] | MBC Pseudomonas aeruginosa [12] | MBC Klebsiella pneumoniae ([7]; ATCC 700603, 24 h) | also measured |
| --- | --- | --- | --- | --- | --- | --- | --- | --- | --- | --- | --- | --- | --- | --- | --- | --- | --- | --- | --- | --- | --- |
| 128 mg/L (≈ 180 µM) | 128 mg/L (≈ 180 µM) | 256 mg/L (≈ 360 µM) | 256 mg/L (≈ 360 µM) | – | >2000 mg/L | – | – | 64 mg/L (≈ 89.9 µM) | CCCCCCCCCCCC(=O)N[C@@H](CCCCN)C(=O)N[C@@H](CCCCN)C(=O)N[C@@H](CCCCN)C(=O)N[C@@H](CCCCN)C(N)=O [C12-KKKK-NH2] (Lauroyl-KKKK-NH2) | 256 mg/L (≈ 360 µM) | 256 mg/L (≈ 360 µM) | 256 mg/L (≈ 360 µM) | 512 mg/L (≈ 719 µM) | – | – | – | – | 64 mg/L (≈ 89.9 µM) | – | 1000 mg/L (≈ 1400 µM) | MIC Enterococcus fecalis ([5]; ATCC 29212, 18 h): 512 mg/L (≈ 719 µM); MBC Enterococcus fecalis ([5]; ATCC 29212, 24 h): 512 mg/L (≈ 719 µM); MIC Escherichia coli ([6]; ATCC 25922, 18 h): 256 mg/L (≈ 360 µM); MBC Escherichia coli ([6]; ATCC 25922, 24 h): 256 mg/L (≈ 360 µM); MIC Staphylococcus aureus ([10]; ATCC 25923, 18 h): 1000 mg/L (≈ 1400 µM); MBC Staphylococcus aureus ([10]; ATCC 25923, 24 h): 1000 mg/L (≈ 1400 µM); Hemolysis HC10 (MHC), concentration of lipopeptide inducing 10% of hemolysis (human red blood cells): 1000 µg/mL |
| 1000 mg/L (≈ 1850 µM) | 512 mg/L (≈ 945 µM) | 1000 mg/L (≈ 1850 µM) | 512 mg/L (≈ 945 µM) | >2000 mg/L | >2000 mg/L | 1000 mg/L (≈ 1850 µM) | >2000 mg/L | 512 mg/L (≈ 945 µM) | CCCCCCCCCC(=O)N[C@@H](CCCCN)C(=O)NCC(=O)N[C@@H](CCCCN)C(=O)NCC(N)=O [C10-KGKG-NH2] (Decanoyl-KGKG-NH2) | 2000 mg/L (≈ 3690 µM) | 1000 mg/L (≈ 1850 µM) | 2000 mg/L (≈ 3690 µM) | 2000 mg/L (≈ 3690 µM) | >2000 mg/L | >2000 mg/L | >2000 mg/L | >2000 mg/L | 512 mg/L (≈ 945 µM) | 2000 mg/L (≈ 3690 µM) | 2000 mg/L (≈ 3690 µM) | MIC Enterococcus fecalis ([5]; ATCC 29212, 18 h): 2000 mg/L (≈ 3690 µM); MIC Klebsiella pneumoniae ([7]; ATCC 700603, 18 h): 2000 mg/L (≈ 3690 µM) |
